How the values were obtained:
[1] = test system: TE-671; test: intrathecal treatment of subarachnoid TE-671 human medulloblastoma xenografts in nude rats; assay type: in vivo, Female athymic nude rats; human medulloblastoma cell line; settings: for loss of antigravity strength / increase in median survival: intrathecal
[2] = test system: cells in vitro; settings: compared with 4-hydrocyclophosphamide, Redwood et al. 1982; cited from earlier work
[3] = test system: murine leukemia cells; settings: Hilton 1984; cited from earlier work
[4] = test system: human breast cancer cells; settings: Kubota et al. 1983; cited from earlier work
[5] = test system: Burkitt's lymphoma cell lines; settings: De Fabritiis et al. 1985; cited from earlier work
[6] = test system: MOLT-4; settings: MOLT-4 (a T-cell leukemia); cited from earlier work
[7] = test system: rhabdomyosarcoma cell line; settings: cited from earlier work
[8] = test system: McF-7; settings: breast cancer cell line McF-7; cited from earlier work
[9] = test system: TE-671; settings: medulloblastoma cell line TE-671; cited from earlier work
[10] = direct intrathecal administration, 100 uM in the cerebrospinal fluid; cited from earlier work
[11] = clinical evidence of toxicity of intrathecal treatment in tumor-bearing nude rats; settings: either dose (final concentration 100 uM or 250 uM)
[12] = final concentration 250 uM, p less than 0.01

SMILES: O=P1(N(CCCl)CCCl)NC(OO)CCO1 (stereo not shown) [4-HC, 4-hydroperoxycyclophosphamide]
- time by which loss of stepping and placing reflexes and ramp climbing ability preceded death ([1]; both treatment studies (100 uM and 250 uM)): approximately 3 days
- loss of antigravity strength ([1]; final CSF concentration 100 uM, day 8 after tumor inoculation, p=0.036): delay in the loss of antigravity strength
- increase in median survival ([1]; final CSF concentration 100 uM, day 8 after tumor inoculation, p=0.04): 20%
- increase in median survival [1, 12]: 36%
- loss of antigravity strength [1, 12]: further delay in the loss of antigravity strength
- histopathology after death: subarachnoid tumor infiltrate ([1]; sections from all animals, 4-HC-treated and saline-treated control groups, base of the brain to the cauda equina): diffuse subarachnoid infiltrate of tumor cells
- toxicity on a molar basis to cells in vitro versus 4-hydrocyclophosphamide [2]: equal toxicity on a molar basis
- activity in vitro [3]: active in vitro
- activity in vitro [4]: active in vitro
- activity in vitro [5]: active in vitro
- concentration at which active [6]: 2.5 µM
- concentration at which active [7]: 8 µM
- concentration at which active [8]: 9.5 µM
- concentration at which active [9]: 12.8 µM
- toxicity [10]: without producing toxicity
- clinical evidence of toxicity [11]: no clinical evidence of toxicity

Reference: patent US5407925A (priority 1991, dated 1995)
